Test results taken from patent publication US9492471B2, “Methods of treating a disease or disorder associated with Bruton'S Tyrosine Kinase” (Celgene Avilomics Research, Inc., priority 2013, dated 2016).
Where two headings read alike, the source gives them in different places.

Assays:
Assay in all cases: HotSpot kinase profiling
Assay type in all cases: biochemical
[1] = target: T1, DDR2 (Homo sapiens, UniProt Q16832)
T1 construct: purchased Reaction Biology Corp
T1 sequence (Q16832 22-855): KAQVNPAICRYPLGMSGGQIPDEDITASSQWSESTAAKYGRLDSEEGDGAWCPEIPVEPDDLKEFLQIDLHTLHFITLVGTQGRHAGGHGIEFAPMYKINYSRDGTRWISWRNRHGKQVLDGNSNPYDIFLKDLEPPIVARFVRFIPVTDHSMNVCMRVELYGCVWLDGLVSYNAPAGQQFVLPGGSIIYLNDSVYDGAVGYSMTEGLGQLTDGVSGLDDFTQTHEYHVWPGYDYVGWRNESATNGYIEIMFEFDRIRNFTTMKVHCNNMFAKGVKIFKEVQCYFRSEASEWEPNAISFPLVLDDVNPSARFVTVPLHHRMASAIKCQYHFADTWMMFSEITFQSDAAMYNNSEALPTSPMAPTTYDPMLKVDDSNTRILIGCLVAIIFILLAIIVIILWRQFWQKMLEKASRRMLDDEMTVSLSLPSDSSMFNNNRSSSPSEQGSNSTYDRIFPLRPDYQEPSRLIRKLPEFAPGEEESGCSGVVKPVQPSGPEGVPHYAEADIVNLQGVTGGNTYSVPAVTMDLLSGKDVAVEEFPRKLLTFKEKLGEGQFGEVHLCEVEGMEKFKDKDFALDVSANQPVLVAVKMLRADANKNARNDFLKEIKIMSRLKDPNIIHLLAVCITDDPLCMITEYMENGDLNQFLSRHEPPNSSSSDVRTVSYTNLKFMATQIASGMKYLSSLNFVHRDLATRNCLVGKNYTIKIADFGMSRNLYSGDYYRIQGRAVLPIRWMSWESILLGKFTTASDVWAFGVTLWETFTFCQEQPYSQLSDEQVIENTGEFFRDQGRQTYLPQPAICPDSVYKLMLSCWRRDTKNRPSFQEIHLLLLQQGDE
Procedure, shortened: (§1)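 P81 filtration radiometric readout; 2 h incubation at room temperature; 0.1% phosphoric acid wash; DMSO negative control; % inhibition, mean of replicate runs.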

[2] = target: T2, GRK1 (Homo sapiens, UniProt Q15835)
T2 construct: purchased Reaction Biology Corp
T2 sequence (Q15835 1-563): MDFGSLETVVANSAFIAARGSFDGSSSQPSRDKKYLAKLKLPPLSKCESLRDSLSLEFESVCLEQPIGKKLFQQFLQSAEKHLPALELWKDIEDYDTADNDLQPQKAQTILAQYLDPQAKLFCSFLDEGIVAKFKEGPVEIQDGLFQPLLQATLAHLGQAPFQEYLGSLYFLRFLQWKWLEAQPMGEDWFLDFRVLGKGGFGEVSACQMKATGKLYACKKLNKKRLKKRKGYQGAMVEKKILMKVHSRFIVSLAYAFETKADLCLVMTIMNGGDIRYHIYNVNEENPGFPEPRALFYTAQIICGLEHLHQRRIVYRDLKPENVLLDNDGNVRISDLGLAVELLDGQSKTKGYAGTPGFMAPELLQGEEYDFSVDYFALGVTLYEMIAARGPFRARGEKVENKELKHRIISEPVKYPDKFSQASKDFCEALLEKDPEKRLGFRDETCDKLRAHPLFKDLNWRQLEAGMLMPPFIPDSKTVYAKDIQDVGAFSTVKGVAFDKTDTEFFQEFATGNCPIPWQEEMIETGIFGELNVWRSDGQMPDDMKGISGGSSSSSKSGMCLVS
Procedure, shortened: as §1

[3] = target: T3, HGK/MAP4K4 (Homo sapiens, UniProt O95819)
T3 construct: purchased Reaction Biology Corp
T3 sequence (O95819 whole entry): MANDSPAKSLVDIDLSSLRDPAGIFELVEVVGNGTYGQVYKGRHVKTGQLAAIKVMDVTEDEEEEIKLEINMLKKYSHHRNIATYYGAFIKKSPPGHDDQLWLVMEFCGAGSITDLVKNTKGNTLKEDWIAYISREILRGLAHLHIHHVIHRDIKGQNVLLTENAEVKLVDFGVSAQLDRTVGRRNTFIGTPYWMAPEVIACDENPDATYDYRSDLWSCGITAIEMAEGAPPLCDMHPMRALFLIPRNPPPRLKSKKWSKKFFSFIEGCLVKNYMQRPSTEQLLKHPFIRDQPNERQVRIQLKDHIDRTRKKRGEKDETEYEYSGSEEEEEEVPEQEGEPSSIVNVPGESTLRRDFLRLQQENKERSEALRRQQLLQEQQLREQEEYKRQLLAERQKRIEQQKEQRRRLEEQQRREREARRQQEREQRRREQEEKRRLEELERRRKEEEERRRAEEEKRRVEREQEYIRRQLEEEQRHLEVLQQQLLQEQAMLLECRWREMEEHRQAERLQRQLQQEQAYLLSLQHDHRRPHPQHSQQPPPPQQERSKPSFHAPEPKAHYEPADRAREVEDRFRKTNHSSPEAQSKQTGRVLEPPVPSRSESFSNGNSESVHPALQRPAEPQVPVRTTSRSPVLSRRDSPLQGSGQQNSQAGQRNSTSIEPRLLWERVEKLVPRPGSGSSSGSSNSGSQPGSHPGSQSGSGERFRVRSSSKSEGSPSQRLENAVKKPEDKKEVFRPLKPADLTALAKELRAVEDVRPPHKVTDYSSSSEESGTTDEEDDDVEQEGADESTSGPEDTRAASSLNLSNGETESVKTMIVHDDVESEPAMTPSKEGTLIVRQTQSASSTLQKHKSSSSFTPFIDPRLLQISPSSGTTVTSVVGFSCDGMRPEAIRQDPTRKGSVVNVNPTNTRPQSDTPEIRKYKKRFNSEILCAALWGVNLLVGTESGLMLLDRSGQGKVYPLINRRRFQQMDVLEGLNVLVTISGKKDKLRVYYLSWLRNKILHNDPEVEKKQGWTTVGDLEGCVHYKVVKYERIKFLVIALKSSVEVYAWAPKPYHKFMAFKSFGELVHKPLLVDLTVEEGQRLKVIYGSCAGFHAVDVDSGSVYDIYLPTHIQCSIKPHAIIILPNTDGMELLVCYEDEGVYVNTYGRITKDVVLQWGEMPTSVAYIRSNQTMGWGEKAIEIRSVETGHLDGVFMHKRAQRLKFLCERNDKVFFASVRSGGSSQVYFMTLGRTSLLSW
Procedure, shortened: as §1

[4] = target: T4, MEKK1 (Homo sapiens, UniProt Q13233)
T4 construct: purchased Reaction Biology Corp
T4 sequence (Q13233 whole entry): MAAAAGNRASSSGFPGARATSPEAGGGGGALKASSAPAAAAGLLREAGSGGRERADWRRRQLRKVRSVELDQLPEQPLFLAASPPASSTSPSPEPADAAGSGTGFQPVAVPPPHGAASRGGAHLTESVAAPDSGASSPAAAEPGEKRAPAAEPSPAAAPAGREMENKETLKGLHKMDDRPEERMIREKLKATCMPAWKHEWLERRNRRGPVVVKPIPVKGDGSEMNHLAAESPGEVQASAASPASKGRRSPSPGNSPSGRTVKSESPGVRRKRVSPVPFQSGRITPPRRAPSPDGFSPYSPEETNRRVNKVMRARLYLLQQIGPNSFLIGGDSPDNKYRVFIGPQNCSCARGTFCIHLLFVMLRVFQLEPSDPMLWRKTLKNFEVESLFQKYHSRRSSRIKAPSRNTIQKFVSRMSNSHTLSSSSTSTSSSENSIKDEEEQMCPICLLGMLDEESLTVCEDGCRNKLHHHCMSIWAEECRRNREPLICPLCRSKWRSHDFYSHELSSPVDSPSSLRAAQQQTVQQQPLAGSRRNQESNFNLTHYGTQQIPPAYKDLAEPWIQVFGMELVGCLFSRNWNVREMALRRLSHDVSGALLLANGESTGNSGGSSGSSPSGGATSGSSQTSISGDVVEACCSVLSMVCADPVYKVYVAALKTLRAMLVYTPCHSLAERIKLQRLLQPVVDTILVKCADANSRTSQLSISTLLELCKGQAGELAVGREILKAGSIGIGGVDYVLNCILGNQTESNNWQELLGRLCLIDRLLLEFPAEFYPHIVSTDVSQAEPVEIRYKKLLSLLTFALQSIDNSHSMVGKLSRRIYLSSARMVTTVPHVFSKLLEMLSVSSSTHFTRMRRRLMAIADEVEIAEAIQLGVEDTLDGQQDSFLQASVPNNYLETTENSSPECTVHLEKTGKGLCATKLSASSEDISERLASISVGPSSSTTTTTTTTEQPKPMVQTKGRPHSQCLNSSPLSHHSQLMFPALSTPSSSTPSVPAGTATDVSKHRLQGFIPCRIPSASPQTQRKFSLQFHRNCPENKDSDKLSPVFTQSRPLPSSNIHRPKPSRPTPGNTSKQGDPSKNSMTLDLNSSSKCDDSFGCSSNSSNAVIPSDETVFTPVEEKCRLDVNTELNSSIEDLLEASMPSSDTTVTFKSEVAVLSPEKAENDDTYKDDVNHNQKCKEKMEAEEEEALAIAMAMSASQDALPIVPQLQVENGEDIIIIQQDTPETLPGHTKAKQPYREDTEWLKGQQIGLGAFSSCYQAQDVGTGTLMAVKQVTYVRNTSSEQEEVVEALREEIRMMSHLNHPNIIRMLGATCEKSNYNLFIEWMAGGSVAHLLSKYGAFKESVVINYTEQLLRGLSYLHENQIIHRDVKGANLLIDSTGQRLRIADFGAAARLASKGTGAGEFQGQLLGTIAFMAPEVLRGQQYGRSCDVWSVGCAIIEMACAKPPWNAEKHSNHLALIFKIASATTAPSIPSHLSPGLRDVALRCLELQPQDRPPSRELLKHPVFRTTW
Procedure, shortened: as §1

[5] = target: T5, MSK1/RPS6KA5 (Homo sapiens, UniProt O75582)
T5 construct: purchased Reaction Biology Corp
T5 sequence (O75582 whole entry): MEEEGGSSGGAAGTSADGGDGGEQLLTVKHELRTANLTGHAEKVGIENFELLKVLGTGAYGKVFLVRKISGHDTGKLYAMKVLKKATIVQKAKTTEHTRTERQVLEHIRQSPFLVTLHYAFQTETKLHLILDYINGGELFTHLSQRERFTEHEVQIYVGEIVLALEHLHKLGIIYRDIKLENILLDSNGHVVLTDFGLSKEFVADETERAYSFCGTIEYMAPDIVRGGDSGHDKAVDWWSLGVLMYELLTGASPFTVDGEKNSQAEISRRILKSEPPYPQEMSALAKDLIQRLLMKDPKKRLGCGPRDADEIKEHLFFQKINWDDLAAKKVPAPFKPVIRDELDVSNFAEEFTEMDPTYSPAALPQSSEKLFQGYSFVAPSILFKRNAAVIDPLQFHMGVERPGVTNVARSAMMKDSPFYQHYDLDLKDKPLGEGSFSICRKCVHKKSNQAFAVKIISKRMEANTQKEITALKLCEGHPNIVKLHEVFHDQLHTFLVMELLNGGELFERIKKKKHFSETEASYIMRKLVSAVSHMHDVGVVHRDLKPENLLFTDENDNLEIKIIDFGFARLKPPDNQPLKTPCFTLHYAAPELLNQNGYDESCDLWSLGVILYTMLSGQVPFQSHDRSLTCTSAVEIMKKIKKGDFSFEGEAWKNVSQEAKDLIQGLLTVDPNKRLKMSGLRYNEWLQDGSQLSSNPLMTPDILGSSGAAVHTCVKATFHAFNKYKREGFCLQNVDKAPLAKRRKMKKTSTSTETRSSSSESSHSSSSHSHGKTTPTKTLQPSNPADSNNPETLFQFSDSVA
Procedure, shortened: as §1

[6] = target: T6, MST2/STK3 (Homo sapiens, UniProt Q13188)
T6 construct: purchased Reaction Biology Corp
T6 sequence (Q13188 1-491): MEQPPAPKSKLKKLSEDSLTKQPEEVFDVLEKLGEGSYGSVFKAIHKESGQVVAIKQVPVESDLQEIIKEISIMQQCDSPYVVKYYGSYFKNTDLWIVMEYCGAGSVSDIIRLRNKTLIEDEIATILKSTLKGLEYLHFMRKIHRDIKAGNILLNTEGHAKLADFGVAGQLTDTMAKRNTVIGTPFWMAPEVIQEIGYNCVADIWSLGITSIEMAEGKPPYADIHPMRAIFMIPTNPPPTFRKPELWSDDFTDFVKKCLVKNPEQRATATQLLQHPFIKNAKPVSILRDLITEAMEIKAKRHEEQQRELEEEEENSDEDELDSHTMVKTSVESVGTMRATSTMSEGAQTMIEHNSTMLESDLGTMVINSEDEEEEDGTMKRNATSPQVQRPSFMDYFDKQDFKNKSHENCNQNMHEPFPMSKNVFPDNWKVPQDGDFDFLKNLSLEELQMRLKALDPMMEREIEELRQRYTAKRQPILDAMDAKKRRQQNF
Procedure, shortened: as §1

[7] = target: T7, PAK5 (Homo sapiens, UniProt Q9P286)
T7 construct: purchased Reaction Biology Corp
T7 sequence (Q9P286 whole entry): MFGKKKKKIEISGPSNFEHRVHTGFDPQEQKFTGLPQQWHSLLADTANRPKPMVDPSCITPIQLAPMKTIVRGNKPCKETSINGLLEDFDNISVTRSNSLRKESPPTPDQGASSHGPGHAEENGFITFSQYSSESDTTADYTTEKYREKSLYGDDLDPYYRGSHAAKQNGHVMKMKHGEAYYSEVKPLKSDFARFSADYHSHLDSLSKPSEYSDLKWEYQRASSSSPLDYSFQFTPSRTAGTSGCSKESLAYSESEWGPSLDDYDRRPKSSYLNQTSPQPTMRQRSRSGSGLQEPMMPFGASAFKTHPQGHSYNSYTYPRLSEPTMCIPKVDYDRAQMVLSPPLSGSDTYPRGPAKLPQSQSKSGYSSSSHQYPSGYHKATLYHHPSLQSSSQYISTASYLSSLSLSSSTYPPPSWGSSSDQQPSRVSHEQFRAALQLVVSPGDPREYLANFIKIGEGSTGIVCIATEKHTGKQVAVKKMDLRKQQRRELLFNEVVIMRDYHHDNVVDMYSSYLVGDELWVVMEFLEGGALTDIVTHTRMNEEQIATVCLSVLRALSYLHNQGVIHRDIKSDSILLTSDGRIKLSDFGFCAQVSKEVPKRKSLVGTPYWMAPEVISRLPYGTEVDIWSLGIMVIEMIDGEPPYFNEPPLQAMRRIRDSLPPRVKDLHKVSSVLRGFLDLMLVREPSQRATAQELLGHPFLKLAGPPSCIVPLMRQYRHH
Procedure, shortened: as §1

[8] = read-out: % Enzyme Activity (relative to DMSO controls) Run 1
[9] = read-out: % Enzyme Activity (relative to DMSO controls) Run 2

## C=CC(=O)Nc1cccc(Nc2nc(Nc3ccc(OCCOC)c(F)c3)ncc2F)c1 [Compound 2]
[1]
  inhibition at 3 µM: -3.87%
[1]; [8]
  remaining activity at 3 µM: 103%
[1]; [9]
  remaining activity at 3 µM: 105%
[2]
  inhibition at 3 µM: -3.47%
[2]; [8]
  remaining activity at 3 µM: 104%
[2]; [9]
  remaining activity at 3 µM: 103%
[3]
  inhibition at 3 µM: 1.27%
[3]; [8]
  remaining activity at 3 µM: 98.9%
[3]; [9]
  remaining activity at 3 µM: 98.6%
[4]
  inhibition at 3 µM: -14.7%
[4]; [8]
  remaining activity at 3 µM: 113%
[4]; [9]
  remaining activity at 3 µM: 117%
[5]
  inhibition at 3 µM: 2.7%
[5]; [8]
  remaining activity at 3 µM: 94.9%
[5]; [9]
  remaining activity at 3 µM: 99.7%
[6]
  inhibition at 3 µM: 10.1%
[6]; [8]
  remaining activity at 3 µM: 91.1%
[6]; [9]
  remaining activity at 3 µM: 88.6%
[7]
  inhibition at 3 µM: -27.4%
[7]; [8]
  remaining activity at 3 µM: 123%
[7]; [9]
  remaining activity at 3 µM: 132%
